Reference: the supplement of paper PMC8612539

Test system: Histophilus somni
Experiment: minimum inhibitory concentration (MIC)
Description: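 Broth microdilution MIC (Sensititre BOPO7F bovine plate, CLSI methods) of 19 antimicrobials against field isolates of P. multocida, M. haemolytica, H. somni (deep nasopharyngeal swabs) and E. coli, Enterococcus spp. (rectal swabs) from weaned dairy heifers. Incubation 16-24 h at 35 C. MIC is the lowest concentration preventing visible growth. Values with <= or > lie at the tested range limits. Trimethoprim-sulfamethoxazole is given as the trimethoprim component of a 1:19 mixture.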

COc1cc(Cc2cnc(N)nc2N)cc(OC)c1OC.Cc1cc(NS(=O)(=O)c2ccc(N)cc2)no1 [trimethoprim-sulfamethoxazole]
Conditions | minimum inhibitory concentration [µg/mL]
isolate (source animal id): 3 | ≤ 2
isolate (source animal id): 4 | > 2
isolate (source animal id): 7 | > 2
isolate (source animal id): 14 | > 2
isolate (source animal id): 15 | ≤ 2
isolate (source animal id): 17 | > 2
isolate (source animal id): 18 | ≤ 2
isolate (source animal id): 20 | > 2
isolate (source animal id): 23 | ≤ 2
isolate (source animal id): 45 | > 2
isolate (source animal id): 53 | > 2
isolate (source animal id): 83 | ≤ 2
isolate (source animal id): 88 | > 2
isolate (source animal id): 92 | ≤ 2
isolate (source animal id): 93 | ≤ 2
isolate (source animal id): 99 | ≤ 2
isolate (source animal id): 100 | ≤ 2
isolate (source animal id): 105 | ≤ 2
isolate (source animal id): 107 | ≤ 2
isolate (source animal id): 108 | ≤ 2
isolate (source animal id): 109 | ≤ 2
isolate (source animal id): 110 | ≤ 2
isolate (source animal id): 117 | > 2
isolate (source animal id): 121 | > 2
isolate (source animal id): 123 | ≤ 2
isolate (source animal id): 124 | ≤ 2
isolate (source animal id): 127 | ≤ 2
isolate (source animal id): 128 | > 2
isolate (source animal id): 130 | ≤ 2
isolate (source animal id): 132 | > 2
isolate (source animal id): 135 | > 2
isolate (source animal id): 140 | > 2
isolate (source animal id): 141 | ≤ 2
isolate (source animal id): 142 | ≤ 2
isolate (source animal id): 144 | ≤ 2
isolate (source animal id): 146 | ≤ 2
isolate (source animal id): 147 | ≤ 2
isolate (source animal id): 151 | > 2
isolate (source animal id): 153 | ≤ 2
isolate (source animal id): 154 | ≤ 2
isolate (source animal id): 156 | ≤ 2
isolate (source animal id): 157 | ≤ 2
isolate (source animal id): 176 | ≤ 2
isolate (source animal id): 183 | ≤ 2
isolate (source animal id): 186 | ≤ 2
isolate (source animal id): 196 | ≤ 2
isolate (source animal id): 198 | ≤ 2
isolate (source animal id): 200 | ≤ 2
isolate (source animal id): 206 | ≤ 2
isolate (source animal id): 208 | ≤ 2
isolate (source animal id): 210 | ≤ 2
isolate (source animal id): 212 | ≤ 2
isolate (source animal id): 215 | ≤ 2
isolate (source animal id): 216 | ≤ 2
isolate (source animal id): 218 | ≤ 2
isolate (source animal id): 219 | ≤ 2
isolate (source animal id): 224 | ≤ 2
isolate (source animal id): 228 | ≤ 2
isolate (source animal id): 230 | ≤ 2
isolate (source animal id): 233 | > 2
isolate (source animal id): 238 | > 2
isolate (source animal id): 239 | > 2
isolate (source animal id): 241 | ≤ 2
isolate (source animal id): 242 | ≤ 2
isolate (source animal id): 243 | ≤ 2
isolate (source animal id): 245 | > 2
isolate (source animal id): 246 | ≤ 2
isolate (source animal id): 247 | ≤ 2
isolate (source animal id): 248 | ≤ 2
isolate (source animal id): 250 | ≤ 2
isolate (source animal id): 251 | ≤ 2
isolate (source animal id): 252 | ≤ 2
isolate (source animal id): 254 | ≤ 2
isolate (source animal id): 258 | ≤ 2
isolate (source animal id): 259 | ≤ 2
isolate (source animal id): 262 | ≤ 2
isolate (source animal id): 264 | ≤ 2
isolate (source animal id): 265 | > 2
isolate (source animal id): 266 | ≤ 2
isolate (source animal id): 267 | ≤ 2
isolate (source animal id): 269 | ≤ 2
isolate (source animal id): 271 | ≤ 2
isolate (source animal id): 272 | > 2
isolate (source animal id): 274 | ≤ 2
isolate (source animal id): 276 | ≤ 2
isolate (source animal id): 278 | ≤ 2
isolate (source animal id): 280 | > 2
isolate (source animal id): 281 | ≤ 2
isolate (source animal id): 283 | ≤ 2
isolate (source animal id): 288 | ≤ 2
isolate (source animal id): 291 | > 2
isolate (source animal id): 292 | ≤ 2
isolate (source animal id): 296 | ≤ 2
isolate (source animal id): 306 | ≤ 2
isolate (source animal id): 336 | ≤ 2
isolate (source animal id): 337 | ≤ 2
isolate (source animal id): 341 | ≤ 2
